Laboratory results published in ChEMBL document CHEMBL4630909 (2021).

Assays:
[1] = biological target: Nucleosome-remodeling factor subunit BPTF (Homo sapiens, UniProt Q12830); test: FALZ DiscoverX BROMOscan
[2] = biological target: D(4) dopamine receptor (Homo sapiens) (UniProt P21917); settings: Compound concentration 10.0 uM
[3] = biological target: Muscarinic acetylcholine receptor M3 (Homo sapiens) (UniProt P20309); settings: Compound concentration 10.0 uM
[4] = biological target: ATPase family AAA domain-containing protein 2 (Homo sapiens, UniProt Q6PL18); test: ATAD2A DiscoverX BROMOscan
[5] = biological target: 5-hydroxytryptamine receptor 7 (Homo sapiens) (UniProt P34969); settings: Compound concentration 10.0 uM
[6] = biological target: Bromodomain and PHD finger-containing protein 3 (Homo sapiens, UniProt Q9ULD4); test: BRPF3 DiscoverX BROMOscan
[7] = biological target: Histamine H4 receptor (Homo sapiens) (UniProt Q9H3N8); settings: Compound concentration 10.0 uM
[8] = biological target: Histone acetyltransferase p300 (Homo sapiens, UniProt Q09472); test: EP300 DiscoverX BROMOscan
[9] = biological target: GABA-A receptor; anion channel (Rattus norvegicus) (UniProt O09028+P15431+P18506+P18508+P19969+P20236+P23574+P23576+P28471+P28473+P30191+P62813+P63079+P63138+Q91ZM7+Q9ES14); settings: Compound concentration 10.0 uM
[10] = biological target: E3 ubiquitin-protein ligase TRIM33 (Homo sapiens, UniProt Q9UPN9); test: TRIM33(PHD,Bromo.) DiscoverX BROMOscan
[11] = biological target: Delta-type opioid receptor (Homo sapiens) (UniProt P41143); settings: Compound concentration 10.0 uM
[12] = biological target: Bromodomain adjacent to zinc finger domain protein 2B (Homo sapiens, UniProt Q9UIF8); test: BAZ2B DiscoverX BROMOscan
[13] = biological target: Muscarinic acetylcholine receptor M5 (Homo sapiens) (UniProt P08912); settings: Compound concentration 10.0 uM
Vasopressin V1a receptor = Vasopressin V1a receptor (Homo sapiens, UniProt P37288); test: (§1) Cross screening panel
D(1A) dopamine receptor = D(1A) dopamine receptor (Homo sapiens, UniProt P21728); test: as §1
[14] = biological target: Beta-2 adrenergic receptor (Homo sapiens, UniProt P07550); test: as §1
[15] = biological target: Muscarinic acetylcholine receptor M2 (Homo sapiens, UniProt P08172); test: as §1
D(2) dopamine receptor = D(2) dopamine receptor (Homo sapiens, UniProt P14416); test: as §1
[16] = biological target: Phosphatidylinositol 4,5-bisphosphate 3-kinase catalytic subunit gamma isoform (Homo sapiens, UniProt P48736); test: as §1
[17] = biological target: Potassium voltage-gated channel subfamily A member 5 (Homo sapiens, UniProt P22460); test: as §1
[18] = biological target: Glutamate receptor ionotropic, NMDA 2B (Homo sapiens, UniProt Q13224); test: as §1
Acetylcholinesterase = Acetylcholinesterase (Homo sapiens, UniProt P22303); test: as §1
[19] = biological target: Kappa-type opioid receptor (Homo sapiens, UniProt P41145); test: as §1
[20] = biological target: Acetylcholine receptor subunit alpha (Homo sapiens, UniProt P02708); test: as §1
[21] = biological target: Alpha-1B adrenergic receptor (Homo sapiens, UniProt P35368); test: as §1
[22] = biological target: Sodium-dependent serotonin transporter (Homo sapiens, UniProt P31645); test: as §1
[23] = biological target: 3',5'-cyclic-AMP phosphodiesterase 4B (Homo sapiens, UniProt Q07343); test: as §1
[24] = biological target: Prostaglandin G/H synthase 2 (Homo sapiens, UniProt P35354); test: as §1
[25] = biological target: Solute carrier organic anion transporter family member 1B1 (Homo sapiens, UniProt Q9Y6L6); test: as §1
[26] = biological target: Muscarinic acetylcholine receptor M1 (Homo sapiens, UniProt P11229); test: as §1
[27] = biological target: Alpha-2C adrenergic receptor (Homo sapiens, UniProt P18825); test: as §1
Adenosine receptor A2a = Adenosine receptor A2a (Homo sapiens, UniProt P29274); test: as §1
Aurora kinase B = Aurora kinase B (Homo sapiens, UniProt Q96GD4); test: as §1
[28] = biological target: Aryl hydrocarbon receptor (Homo sapiens, UniProt P35869); test: as §1
[29] = biological target: Nuclear receptor subfamily 1 group I member 2 (Homo sapiens, UniProt O75469); test: as §1
Cannabinoid receptor 2 = Cannabinoid receptor 2 (Homo sapiens, UniProt P34972); test: as §1
[30] = biological target: 5-hydroxytryptamine receptor 2C (Homo sapiens, UniProt P28335); test: as §1
[31] = biological target: Tyrosine-protein kinase Lck (Homo sapiens, UniProt P06239); test: as §1
Mu-type opioid receptor [32] = biological target: T1, Mu-type opioid receptor (Homo sapiens, UniProt P35372); test: as §1
[33] = biological target: Sodium channel protein type 5 subunit alpha (Homo sapiens, UniProt Q14524); test: as §1
Substance-P receptor = Substance-P receptor (Homo sapiens, UniProt P25103); test: as §1
[34] = biological target: Amine oxidase [flavin-containing] A (Homo sapiens, UniProt P21397); test: as §1
[35] = biological target: cGMP-inhibited 3',5'-cyclic phosphodiesterase 3A (Homo sapiens, UniProt Q14432); test: as §1
[36] = biological target: Sodium-dependent noradrenaline transporter (Homo sapiens, UniProt P23975); test: as §1
Histamine H1 receptor = Histamine H1 receptor (Homo sapiens, UniProt P35367); test: as §1
[37] = biological target: 5-hydroxytryptamine receptor 2A (Homo sapiens, UniProt P28223); test: as §1
[38] = biological target: 5-hydroxytryptamine receptor 3A (Homo sapiens, UniProt P46098); test: as §1
[39] = biological target: 5-hydroxytryptamine receptor 1B (Homo sapiens, UniProt P28222); test: as §1
[40] = biological target: Voltage-dependent L-type calcium channel subunit alpha-1C (Homo sapiens, UniProt Q13936); test: as §1
[41] = biological target: Alpha-2B adrenergic receptor (Homo sapiens) (UniProt P18089); settings: Compound concentration 10.0 uM
Mu-type opioid receptor [42] = biological target: T1, Mu-type opioid receptor; settings: Compound concentration 10.0 uM
[43] = biological target: Beta-1 adrenergic receptor (Homo sapiens) (UniProt P08588); settings: Compound concentration 10.0 uM
[44] = biological target: Bromodomain-containing protein 8 (Homo sapiens, UniProt Q9H0E9); test: BRD8(2) DiscoverX BROMOscan
[45] = biological target: Alpha-2A adrenergic receptor (Homo sapiens) (UniProt P08913); settings: Compound concentration 10.0 uM
[46] = biological target: Bromodomain and WD repeat-containing protein 1 (Homo sapiens, UniProt Q9NSI6); test: WDR9(2) DiscoverX BROMOscan

Sequence of Acetylcholine receptor subunit alpha (P02708 whole entry): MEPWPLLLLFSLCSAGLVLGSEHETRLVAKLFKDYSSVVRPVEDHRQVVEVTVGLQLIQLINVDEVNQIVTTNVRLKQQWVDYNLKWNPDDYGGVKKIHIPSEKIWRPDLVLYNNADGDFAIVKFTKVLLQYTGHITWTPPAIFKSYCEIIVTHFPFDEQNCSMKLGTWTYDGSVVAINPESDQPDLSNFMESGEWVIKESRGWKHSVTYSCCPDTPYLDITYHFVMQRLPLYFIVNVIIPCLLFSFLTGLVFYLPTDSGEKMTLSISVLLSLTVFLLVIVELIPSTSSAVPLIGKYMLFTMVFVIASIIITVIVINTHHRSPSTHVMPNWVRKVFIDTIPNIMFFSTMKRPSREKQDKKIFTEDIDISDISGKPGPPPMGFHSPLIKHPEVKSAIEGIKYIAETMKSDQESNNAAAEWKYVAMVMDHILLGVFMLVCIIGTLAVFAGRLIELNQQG
Sequence of Muscarinic acetylcholine receptor M2 (P08172 whole entry): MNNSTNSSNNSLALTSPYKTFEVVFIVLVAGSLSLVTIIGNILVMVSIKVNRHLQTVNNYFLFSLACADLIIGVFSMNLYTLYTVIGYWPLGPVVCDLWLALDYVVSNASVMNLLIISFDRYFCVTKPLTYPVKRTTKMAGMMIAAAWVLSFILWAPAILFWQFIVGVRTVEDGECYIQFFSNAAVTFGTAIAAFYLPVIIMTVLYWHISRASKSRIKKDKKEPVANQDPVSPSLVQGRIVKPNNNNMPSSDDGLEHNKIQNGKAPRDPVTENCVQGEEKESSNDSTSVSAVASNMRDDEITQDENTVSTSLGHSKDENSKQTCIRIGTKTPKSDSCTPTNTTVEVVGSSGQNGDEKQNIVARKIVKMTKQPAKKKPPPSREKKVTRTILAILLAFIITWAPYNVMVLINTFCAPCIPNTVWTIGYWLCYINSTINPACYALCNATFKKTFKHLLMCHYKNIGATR
Sequence of 5-hydroxytryptamine receptor 2A (P28223 whole entry): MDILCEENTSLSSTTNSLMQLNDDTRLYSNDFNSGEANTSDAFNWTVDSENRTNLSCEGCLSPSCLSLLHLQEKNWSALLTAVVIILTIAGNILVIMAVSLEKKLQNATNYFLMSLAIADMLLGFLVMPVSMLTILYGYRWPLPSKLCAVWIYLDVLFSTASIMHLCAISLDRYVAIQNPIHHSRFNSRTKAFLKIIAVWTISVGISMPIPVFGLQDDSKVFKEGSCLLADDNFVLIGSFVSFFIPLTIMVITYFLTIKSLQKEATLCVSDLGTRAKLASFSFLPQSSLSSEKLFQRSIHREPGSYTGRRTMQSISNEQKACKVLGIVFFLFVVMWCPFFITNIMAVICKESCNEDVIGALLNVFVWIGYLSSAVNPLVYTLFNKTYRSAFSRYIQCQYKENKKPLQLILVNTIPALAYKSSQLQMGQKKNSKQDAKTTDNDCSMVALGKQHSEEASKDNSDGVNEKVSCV
Sequence of 5-hydroxytryptamine receptor 2C (P28335 whole entry): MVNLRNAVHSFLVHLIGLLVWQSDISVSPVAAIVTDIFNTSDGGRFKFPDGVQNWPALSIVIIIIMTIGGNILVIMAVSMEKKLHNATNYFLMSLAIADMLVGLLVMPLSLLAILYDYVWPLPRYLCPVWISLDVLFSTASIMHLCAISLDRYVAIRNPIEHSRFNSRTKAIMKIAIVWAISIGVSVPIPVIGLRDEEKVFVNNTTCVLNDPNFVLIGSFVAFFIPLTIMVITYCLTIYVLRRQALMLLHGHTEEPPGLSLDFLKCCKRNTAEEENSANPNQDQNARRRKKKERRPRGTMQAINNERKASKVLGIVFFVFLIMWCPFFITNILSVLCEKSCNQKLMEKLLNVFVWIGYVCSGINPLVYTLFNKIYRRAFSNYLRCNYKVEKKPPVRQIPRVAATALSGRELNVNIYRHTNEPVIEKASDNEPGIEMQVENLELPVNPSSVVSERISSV
Sequence of Beta-2 adrenergic receptor (P07550 whole entry): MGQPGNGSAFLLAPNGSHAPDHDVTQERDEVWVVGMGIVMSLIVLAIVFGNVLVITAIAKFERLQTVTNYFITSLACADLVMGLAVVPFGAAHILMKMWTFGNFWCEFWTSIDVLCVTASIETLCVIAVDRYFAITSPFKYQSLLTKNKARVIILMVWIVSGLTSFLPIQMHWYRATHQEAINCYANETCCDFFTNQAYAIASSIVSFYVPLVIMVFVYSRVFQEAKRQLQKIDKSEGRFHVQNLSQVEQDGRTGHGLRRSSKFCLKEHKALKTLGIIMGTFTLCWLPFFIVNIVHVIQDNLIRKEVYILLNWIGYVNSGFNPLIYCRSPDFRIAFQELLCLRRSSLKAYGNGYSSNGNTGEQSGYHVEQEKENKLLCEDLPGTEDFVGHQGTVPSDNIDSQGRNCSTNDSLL
Sequence of 5-hydroxytryptamine receptor 1B (P28222 whole entry): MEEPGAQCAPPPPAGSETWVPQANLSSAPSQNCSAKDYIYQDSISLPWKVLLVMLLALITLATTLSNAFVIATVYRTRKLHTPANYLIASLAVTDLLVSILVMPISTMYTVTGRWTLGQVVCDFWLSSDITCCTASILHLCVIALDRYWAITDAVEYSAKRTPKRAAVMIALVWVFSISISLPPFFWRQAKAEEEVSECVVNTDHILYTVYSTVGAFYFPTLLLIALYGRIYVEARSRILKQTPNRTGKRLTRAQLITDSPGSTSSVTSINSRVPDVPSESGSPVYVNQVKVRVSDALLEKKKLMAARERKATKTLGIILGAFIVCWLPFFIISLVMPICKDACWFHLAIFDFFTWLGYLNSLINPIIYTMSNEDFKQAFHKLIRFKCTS
Sequence of D(2) dopamine receptor (P14416 whole entry, canonical isoform): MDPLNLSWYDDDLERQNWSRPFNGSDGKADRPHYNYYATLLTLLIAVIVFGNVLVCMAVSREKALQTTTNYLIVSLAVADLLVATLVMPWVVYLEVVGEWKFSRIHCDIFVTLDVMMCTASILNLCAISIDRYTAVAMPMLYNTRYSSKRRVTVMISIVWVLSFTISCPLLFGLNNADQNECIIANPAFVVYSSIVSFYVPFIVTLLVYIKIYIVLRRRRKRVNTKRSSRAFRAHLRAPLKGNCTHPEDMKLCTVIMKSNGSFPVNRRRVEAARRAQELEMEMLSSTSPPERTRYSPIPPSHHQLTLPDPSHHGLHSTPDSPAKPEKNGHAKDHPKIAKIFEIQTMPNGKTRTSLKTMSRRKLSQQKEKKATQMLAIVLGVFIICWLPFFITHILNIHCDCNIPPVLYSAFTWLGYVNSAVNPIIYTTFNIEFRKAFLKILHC
T1 sequence (P35372 whole entry): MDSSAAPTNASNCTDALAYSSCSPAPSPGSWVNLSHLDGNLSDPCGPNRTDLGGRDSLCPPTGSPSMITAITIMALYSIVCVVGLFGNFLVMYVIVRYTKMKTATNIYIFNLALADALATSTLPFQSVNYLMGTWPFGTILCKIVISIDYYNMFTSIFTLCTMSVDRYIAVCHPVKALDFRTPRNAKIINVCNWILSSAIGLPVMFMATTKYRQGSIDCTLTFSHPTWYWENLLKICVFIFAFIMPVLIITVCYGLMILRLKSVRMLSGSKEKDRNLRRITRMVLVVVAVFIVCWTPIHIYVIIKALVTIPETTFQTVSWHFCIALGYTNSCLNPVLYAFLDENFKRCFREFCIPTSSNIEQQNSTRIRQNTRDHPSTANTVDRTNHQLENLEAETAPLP
Sequence of Muscarinic acetylcholine receptor M1 (P11229 whole entry): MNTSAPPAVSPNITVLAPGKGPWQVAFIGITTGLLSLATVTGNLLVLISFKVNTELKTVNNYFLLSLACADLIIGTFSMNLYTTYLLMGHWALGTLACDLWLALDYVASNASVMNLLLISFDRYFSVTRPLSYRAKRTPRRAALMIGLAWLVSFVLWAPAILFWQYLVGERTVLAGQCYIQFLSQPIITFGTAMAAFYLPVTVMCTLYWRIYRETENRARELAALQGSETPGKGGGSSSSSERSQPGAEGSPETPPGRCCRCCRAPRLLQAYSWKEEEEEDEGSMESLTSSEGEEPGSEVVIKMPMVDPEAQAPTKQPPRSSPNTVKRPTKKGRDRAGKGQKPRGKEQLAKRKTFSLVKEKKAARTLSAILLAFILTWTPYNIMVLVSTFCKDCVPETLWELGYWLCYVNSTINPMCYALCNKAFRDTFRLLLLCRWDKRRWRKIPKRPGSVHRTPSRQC
Sequence of 5-hydroxytryptamine receptor 3A (P46098 whole entry): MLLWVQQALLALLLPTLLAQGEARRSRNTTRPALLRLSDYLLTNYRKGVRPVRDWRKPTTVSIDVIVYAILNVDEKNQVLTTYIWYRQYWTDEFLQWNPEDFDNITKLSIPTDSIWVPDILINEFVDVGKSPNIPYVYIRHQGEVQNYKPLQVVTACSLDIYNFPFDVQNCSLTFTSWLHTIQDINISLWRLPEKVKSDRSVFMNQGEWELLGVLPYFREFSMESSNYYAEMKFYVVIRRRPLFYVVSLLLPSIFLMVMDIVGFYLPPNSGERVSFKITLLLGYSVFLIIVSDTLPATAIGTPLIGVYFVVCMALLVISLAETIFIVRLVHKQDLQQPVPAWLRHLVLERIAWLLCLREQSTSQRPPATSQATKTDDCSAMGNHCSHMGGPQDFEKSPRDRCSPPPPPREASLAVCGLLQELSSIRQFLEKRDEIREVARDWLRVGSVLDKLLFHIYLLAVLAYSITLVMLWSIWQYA
Sequence of Alpha-2B adrenergic receptor (Homo sapiens) (P18089 whole entry): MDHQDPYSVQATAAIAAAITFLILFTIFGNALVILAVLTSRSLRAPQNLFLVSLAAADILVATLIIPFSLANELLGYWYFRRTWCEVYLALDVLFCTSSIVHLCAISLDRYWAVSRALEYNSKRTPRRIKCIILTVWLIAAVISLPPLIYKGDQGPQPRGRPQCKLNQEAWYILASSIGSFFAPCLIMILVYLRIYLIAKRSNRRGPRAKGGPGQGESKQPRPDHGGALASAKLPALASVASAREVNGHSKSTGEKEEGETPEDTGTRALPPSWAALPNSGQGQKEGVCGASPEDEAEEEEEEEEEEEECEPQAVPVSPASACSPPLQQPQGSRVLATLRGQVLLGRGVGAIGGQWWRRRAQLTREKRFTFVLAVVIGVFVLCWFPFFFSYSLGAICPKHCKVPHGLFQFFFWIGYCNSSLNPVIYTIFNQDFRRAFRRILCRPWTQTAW

`CNC(=O)c1cc(C(=O)NC2CC2)cn(Cc2ccccc2)c1=O` [GSK620] gave a Kd [1] of 25.1 µM, an inhibition [2] of 6.96% and an inhibition [3] of 21.4%. For the same compound, the Kd [4] was 31.6 µM, the inhibition [5] was 13.6% and the Kd [6] was 31.6 µM. It also gave an inhibition [7] of 16.1%, a Kd [8] of 7.94 µM and an inhibition [9] of 8.55%. For the same compound, the Kd [10] was 31.6 µM, the inhibition [11] was -2.78% and the Kd [12] was 31.6 µM. The inhibition [13] was -5.05%, the IC50 (Vasopressin V1a receptor) was greater than 50.1 µM and the IC50 (D(1A) dopamine receptor) was greater than 100 µM. The EC50 [14] was greater than 100 µM, the IC50 [14] was greater than 100 µM and the EC50 [15] was greater than 50.1 µM. The IC50 [15] was greater than 50.1 µM, the EC50 (D(2) dopamine receptor) was greater than 100 µM and the IC50 (D(2) dopamine receptor) was greater than 100 µM. It also gave an IC50 [16] greater than 31.6 µM, an IC50 [17] greater than 50.1 µM and an IC50 [18] greater than 50.1 µM. The IC50 (Acetylcholinesterase) was greater than 100 µM, the EC50 [19] was greater than 100 µM and the EC50 [20] was greater than 50.1 µM. The IC50 [20] was greater than 50.1 µM, the IC50 [21] was greater than 25.1 µM and the IC50 [22] was greater than 100 µM. It also gave an IC50 [23] greater than 100 µM, an IC50 [24] greater than 100 µM and an IC50 [25] greater than 50.1 µM. For the same compound, the EC50 [26] was greater than 50.1 µM, the IC50 [26] was greater than 50.1 µM and the EC50 [27] was greater than 100 µM. For the same compound, the EC50 (Adenosine receptor A2a) was greater than 100 µM, the IC50 (Aurora kinase B) was greater than 31.6 µM and the EC50 [28] was greater than 100 µM. It also gave an EC50 [29] greater than 50.1 µM, an EC50 (Cannabinoid receptor 2) greater than 10 µM and an EC50 [30] greater than 25.1 µM. The IC50 [30] was greater than 25.1 µM, the IC50 [31] was greater than 31.6 µM and the EC50 (Mu-type opioid receptor [32]) was greater than 100 µM. It also gave an IC50 [33] greater than 100 µM, an IC50 (Substance-P receptor) greater than 25.1 µM and an IC50 [34] greater than 100 µM. For the same compound, the IC50 [35] was greater than 100 µM, the IC50 [36] was greater than 100 µM and the IC50 (Histamine H1 receptor) was greater than 25.1 µM. The EC50 [37] was greater than 25.1 µM, the IC50 [37] was greater than 25.1 µM and the EC50 [38] was greater than 50.1 µM. It also gave an IC50 [38] greater than 50.1 µM, an EC50 [39] greater than 100 µM and an IC50 [39] greater than 100 µM. For the same compound, the IC50 [40] was 79.4 µM, the inhibition [41] was 5.2% and the inhibition (Mu-type opioid receptor [42]) was 13.5%. The inhibition [43] was -6.19%, the Kd [44] was 31.6 µM and the inhibition [45] was -4.53%. For the same compound, the Kd [46] was 31.6 µM.
